Experimental data as given in patent publication US20180186807A1, “COMPOUNDS AND USES THEREOF FOR THE MODULATION OF HEMOGLOBIN” (Global Blood Therapeutics, Inc., priority 2013, published 2018).

melting point: 272 to 275 °C
SMILES: O=Cc1c(O)cccc1OCC(=O)N(C1CCOCC1)C1CCOCC1 [GBT001203, 2-(2-formyl-3-hydroxyphenoxy)-N,N-bis(tetrahydro-2H-pyran-4-yl)acetamide]
